In US20230301300A1, “HERBICIDAL COMPOSITIONS” (SYNGENTA CROP PROTECTION AG, priority 2020, published 2023):

Legend:
Experiment in all cases: B2 Post-Emergence Efficacy - Test 2
Format in all cases: in vivo
Sorghum bicolour (SORVU) = conditions: 15 days after application, 0=no damage, 100=total kill
Outline: (§1)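 Glasshouse post-emergence test: plants sown in standard soil, grown 12 days (24/18 °C or 20/16 °C day/night; 16 h light; 65% humidity), sprayed once with an aqueous IF50-based formulation including 0.2% v/v Genapol X080. Visual injury, 0–100, recorded 15 days post-application.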

[1] = test system: Chenopodium album (CHEAL); conditions: 15 days after application, 0-100 scale
Outline: as §1

Bromus tectorum (BROTE) = conditions: 15 days after application, 0-100 scale
Outline: as §1

[2] = test system: Euphorbia hetrophylla (EPHHL); conditions: 15 days after application, 0-100 scale
Outline: as §1

[3] = test system: Panicum miliaceum (PANMI); conditions: 15 days after application, 0=no damage, 100=total kill
Outline: as §1

Beta vulgaris (BEAVA) = conditions: 15 days after application, 0-100 scale
Outline: as §1

Avena fatua (AVEFA) = conditions: 15 days after application, 0-100 scale
Outline: as §1

[4] = test system: Xanthium strumarium (XANST); conditions: 15 days after application, 0-100 scale
Outline: as §1

[5] = test system: Ipomoea hederacea (IPOHE); conditions: 15 days after application, 0-100 scale
Outline: as §1

Sida spinosa (SIDSP) = conditions: 15 days after application, 0-100 scale
Outline: as §1

Brassica napus (BRSNN) = conditions: 15 days after application, 0-100 scale
Outline: as §1

Stellaria media (STEME) = conditions: 15 days after application, 0-100 scale
Outline: as §1

Eleisine indica (ELEIN) = conditions: 15 days after application, 0=no damage, 100=total kill
Outline: as §1

Veronica persica (VERPE) = conditions: 15 days after application, 0-100 scale
Outline: as §1

[6] = test system: Echinochloa crus galli (ECHCG); conditions: 15 days after application, 0=no damage, 100=total kill
Outline: as §1

[7] = test system: Amaranthus retroflexus (AMARE); conditions: 15 days after application, 0-100 scale
Outline: as §1

Glycine max (GLXMA) = conditions: 15 days after application; for Herbicidal activity GLXMA: 0-100 scale; for Herbicidal activity on a 0-100 scale, GLXMA: 0=no damage, 100=total kill
Outline: as §1

[8] = test system: Alopecurus myosuroides (ALOMY); conditions: 15 days after application, 0-100 scale
Outline: as §1

Compound: Cc1nn(C)c(=O)c(-c2c(F)ccc(Cl)c2CCc2ccc(C(F)(F)F)nc2)c1O [Compound 1.042, 4-[3-chloro-6-fluoro-2-[2-[6-(trifluoromethyl)-3-pyridyl]ethyl]phenyl]-5-hydroxy-2,6-dimethyl-pyridazin-3-one]
- Herbicidal activity on a 0-100 scale, SORVU (Sorghum bicolour (SORVU); 15 g/Ha): 0
- Herbicidal activity on a 0-100 scale, SORVU (Sorghum bicolour (SORVU); 30 g/Ha): 70
- Herbicidal activity on a 0-100 scale, SORVU (Sorghum bicolour (SORVU); 60 g/Ha): 80
- Herbicidal activity on a 0-100 scale, SORVU (Sorghum bicolour (SORVU); 125 g/Ha): 90
- Herbicidal activity on a 0-100 scale, SORVU (Sorghum bicolour (SORVU); 250 g/Ha): 90
- Herbicidal activity on a 0-100 scale, SORVU (Sorghum bicolour (SORVU); 500 g/Ha): 100
- Herbicidal activity CHEAL ([1]; 30 g/Ha): 90
- Herbicidal activity CHEAL ([1]; 60 g/Ha): 90
- Herbicidal activity CHEAL ([1]; 125 g/Ha): 90
- Herbicidal activity CHEAL ([1]; 250 g/Ha): 100
- Herbicidal activity CHEAL ([1]; 500 g/Ha): 100
- Herbicidal activity BROTE (Bromus tectorum (BROTE); 15 g/Ha): 20
- Herbicidal activity BROTE (Bromus tectorum (BROTE); 30 g/Ha): 30
- Herbicidal activity BROTE (Bromus tectorum (BROTE); 60 g/Ha): 70
- Herbicidal activity BROTE (Bromus tectorum (BROTE); 125 g/Ha): 80
- Herbicidal activity BROTE (Bromus tectorum (BROTE); 250 g/Ha): 80
- Herbicidal activity BROTE (Bromus tectorum (BROTE); 500 g/Ha): 90
- Herbicidal activity EPHHL ([2]; 15 g/Ha): 80
- Herbicidal activity EPHHL ([2]; 30 g/Ha): 90
- Herbicidal activity EPHHL ([2]; 60 g/Ha): 90
- Herbicidal activity EPHHL ([2]; 125 g/Ha): 100
- Herbicidal activity EPHHL ([2]; 250 g/Ha): 100
- Herbicidal activity EPHHL ([2]; 500 g/Ha): 100
- Herbicidal activity on a 0-100 scale, PANMI ([3]; 15 g/Ha): 10
- Herbicidal activity on a 0-100 scale, PANMI ([3]; 30 g/Ha): 60
- Herbicidal activity on a 0-100 scale, PANMI ([3]; 60 g/Ha): 80
- Herbicidal activity on a 0-100 scale, PANMI ([3]; 125 g/Ha): 90
- Herbicidal activity on a 0-100 scale, PANMI ([3]; 250 g/Ha): 100
- Herbicidal activity on a 0-100 scale, PANMI ([3]; 500 g/Ha): 100
- Herbicidal activity BEAVA (Beta vulgaris (BEAVA); 15 g/Ha): 80
- Herbicidal activity BEAVA (Beta vulgaris (BEAVA); 30 g/Ha): 70
- Herbicidal activity BEAVA (Beta vulgaris (BEAVA); 60 g/Ha): 80
- Herbicidal activity BEAVA (Beta vulgaris (BEAVA); 125 g/Ha): 90
- Herbicidal activity BEAVA (Beta vulgaris (BEAVA); 250 g/Ha): 90
- Herbicidal activity BEAVA (Beta vulgaris (BEAVA); 500 g/Ha): 90
- Herbicidal activity AVEFA (Avena fatua (AVEFA); 15 g/Ha): 30
- Herbicidal activity AVEFA (Avena fatua (AVEFA); 30 g/Ha): 60
- Herbicidal activity AVEFA (Avena fatua (AVEFA); 60 g/Ha): 80
- Herbicidal activity AVEFA (Avena fatua (AVEFA); 125 g/Ha): 80
- Herbicidal activity AVEFA (Avena fatua (AVEFA); 250 g/Ha): 90
- Herbicidal activity AVEFA (Avena fatua (AVEFA); 500 g/Ha): 90
- Herbicidal activity XANST ([4]; 15 g/Ha): 80
- Herbicidal activity XANST ([4]; 125 g/Ha): 90
- Herbicidal activity XANST ([4]; 250 g/Ha): 100
- Herbicidal activity XANST ([4]; 500 g/Ha): 100
- Herbicidal activity IPOHE ([5]; 15 g/Ha): 100
- Herbicidal activity IPOHE ([5]; 30 g/Ha): 100
- Herbicidal activity IPOHE ([5]; 60 g/Ha): 100
- Herbicidal activity IPOHE ([5]; 125 g/Ha): 100
- Herbicidal activity IPOHE ([5]; 250 g/Ha): 100
- Herbicidal activity IPOHE ([5]; 500 g/Ha): 100
- Herbicidal activity SIDSP (Sida spinosa (SIDSP); 15 g/Ha): 90
- Herbicidal activity SIDSP (Sida spinosa (SIDSP); 30 g/Ha): 90
- Herbicidal activity SIDSP (Sida spinosa (SIDSP); 60 g/Ha): 100
- Herbicidal activity SIDSP (Sida spinosa (SIDSP); 250 g/Ha): 100
- Herbicidal activity SIDSP (Sida spinosa (SIDSP); 500 g/Ha): 100
- Herbicidal activity BRSNN (Brassica napus (BRSNN); 15 g/Ha): 90
- Herbicidal activity BRSNN (Brassica napus (BRSNN); 30 g/Ha): 90
- Herbicidal activity BRSNN (Brassica napus (BRSNN); 60 g/Ha): 90
- Herbicidal activity BRSNN (Brassica napus (BRSNN); 125 g/Ha): 90
- Herbicidal activity BRSNN (Brassica napus (BRSNN); 250 g/Ha): 90
- Herbicidal activity BRSNN (Brassica napus (BRSNN); 500 g/Ha): 90
- Herbicidal activity STEME (Stellaria media (STEME); 15 g/Ha): 100
- Herbicidal activity STEME (Stellaria media (STEME); 30 g/Ha): 100
- Herbicidal activity STEME (Stellaria media (STEME); 60 g/Ha): 90
- Herbicidal activity STEME (Stellaria media (STEME); 125 g/Ha): 100
- Herbicidal activity STEME (Stellaria media (STEME); 250 g/Ha): 100
- Herbicidal activity STEME (Stellaria media (STEME); 500 g/Ha): 100
- Herbicidal activity on a 0-100 scale, ELEIN (Eleisine indica (ELEIN); 15 g/Ha): 0
- Herbicidal activity on a 0-100 scale, ELEIN (Eleisine indica (ELEIN); 30 g/Ha): 70
- Herbicidal activity on a 0-100 scale, ELEIN (Eleisine indica (ELEIN); 60 g/Ha): 70
- Herbicidal activity on a 0-100 scale, ELEIN (Eleisine indica (ELEIN); 125 g/Ha): 80
- Herbicidal activity on a 0-100 scale, ELEIN (Eleisine indica (ELEIN); 250 g/Ha): 80
- Herbicidal activity on a 0-100 scale, ELEIN (Eleisine indica (ELEIN); 500 g/Ha): 90
- Herbicidal activity VERPE (Veronica persica (VERPE); 15 g/Ha): 80
- Herbicidal activity VERPE (Veronica persica (VERPE); 30 g/Ha): 90
- Herbicidal activity VERPE (Veronica persica (VERPE); 60 g/Ha): 100
- Herbicidal activity VERPE (Veronica persica (VERPE); 125 g/Ha): 100
- Herbicidal activity VERPE (Veronica persica (VERPE); 250 g/Ha): 100
- Herbicidal activity VERPE (Veronica persica (VERPE); 500 g/Ha): 100
- Herbicidal activity on a 0-100 scale, ECHCG ([6]; 15 g/Ha): 80
- Herbicidal activity on a 0-100 scale, ECHCG ([6]; 30 g/Ha): 90
- Herbicidal activity on a 0-100 scale, ECHCG ([6]; 60 g/Ha): 90
- Herbicidal activity on a 0-100 scale, ECHCG ([6]; 125 g/Ha): 90
- Herbicidal activity on a 0-100 scale, ECHCG ([6]; 250 g/Ha): 100
- Herbicidal activity on a 0-100 scale, ECHCG ([6]; 500 g/Ha): 100
- Herbicidal activity AMARE ([7]; 30 g/Ha): 100
- Herbicidal activity AMARE ([7]; 60 g/Ha): 100
- Herbicidal activity AMARE ([7]; 125 g/Ha): 100
- Herbicidal activity AMARE ([7]; 250 g/Ha): 100
- Herbicidal activity AMARE ([7]; 500 g/Ha): 100
- Herbicidal activity GLXMA (Glycine max (GLXMA); 15 g/Ha): 60
- Herbicidal activity on a 0-100 scale, GLXMA (Glycine max (GLXMA); 15 g/Ha): 60
- Herbicidal activity GLXMA (Glycine max (GLXMA); 30 g/Ha): 80
- Herbicidal activity on a 0-100 scale, GLXMA (Glycine max (GLXMA); 30 g/Ha): 80
- Herbicidal activity GLXMA (Glycine max (GLXMA); 60 g/Ha): 90
- Herbicidal activity on a 0-100 scale, GLXMA (Glycine max (GLXMA); 60 g/Ha): 90
- Herbicidal activity GLXMA (Glycine max (GLXMA); 125 g/Ha): 90
- Herbicidal activity on a 0-100 scale, GLXMA (Glycine max (GLXMA); 125 g/Ha): 90
- Herbicidal activity GLXMA (Glycine max (GLXMA); 250 g/Ha): 100
- Herbicidal activity on a 0-100 scale, GLXMA (Glycine max (GLXMA); 250 g/Ha): 100
- Herbicidal activity GLXMA (Glycine max (GLXMA); 500 g/Ha): 100
- Herbicidal activity on a 0-100 scale, GLXMA (Glycine max (GLXMA); 500 g/Ha): 100
- Herbicidal activity ALOMY ([8]; 15 g/Ha): 20
- Herbicidal activity ALOMY ([8]; 30 g/Ha): 60
- Herbicidal activity ALOMY ([8]; 60 g/Ha): 80
- Herbicidal activity ALOMY ([8]; 125 g/Ha): 80
- Herbicidal activity ALOMY ([8]; 250 g/Ha): 90
- Herbicidal activity ALOMY ([8]; 500 g/Ha): 90
